Experimental data taken from article PMC6154745 (Oncotarget, 2018).
Marks after values point to notes of the source that are not given here.

Key:
[1] = test system: kidney miRNAs; assay: miRNA expression (microarray), Study 3, kidney; type: in vivo, ICR (CD-1) mice
Protocol: (§1) Each group was composed of 10 female mice.
(§2) The urine was collected for 8 h and pooled from the mice belonging to each experimental group in Study 3 by using metabolic cages during the day preceding euthanasia of mice. Immediately after sacrifice, a bronchoalveolar lavage (BAL) was performed and used for preparing BALF, and the blood was collected and used for preparing serum. BALF and blood serum were pooled within each experimental group. The organs reported in the general design of the studies were collected, as previously described. Immediately after collection, each organ or fluid was immersed in RNAlater and kept at -80°C for miRNA analysis. Portions of the organs used in Study 1 and Study 2 were stored at -80°C for evaluating DNA damage.
(§3) For evaluating the expression of pulmonary miRNAs we used the 7th generation miRCURY LNA™ microRNA Array (Exiqon), which contains 3,100 capture probes covering human, mouse and rat miRNAs. In particular, this array covers 1,135 mouse miRNAs, i.e. the 88.6% of the 1,281 mouse miRNAs listed in miRBase 19. Microarray analyses were carried out as previously described.
(§4) Treatment-related differences in body weights, in the frequency of MN NCE, and in the levels of pulmonary DNA adducts and 8-oxo-dGuo, all of them expressed as means ± SE within each group of mice, were evaluated for statistical significance by ANOVA followed by Student's t test for unpaired data. miRNA microarray data, after local background subtraction, log transformation, and normalization were analyzed by GeneSpring software (Agilent, Santa Clara, CA), and expression data were median centered by using the GeneSpring normalization option.

[2] = test system: urinary bladder miRNAs; assay: miRNA expression (microarray), Study 3, urinary bladder; type: in vivo, ICR (CD-1) mice
Protocol: as §1, §2, §3, §4

[3] = test system: blood serum miRNAs; assay: miRNA expression (microarray), Study 3, blood serum; type: in vivo, ICR (CD-1) mice
Protocol: as §1, §2, §3, §4

[4] = test system: normochromatic erythrocytes; assay: Systemic genotoxicity: frequency of MN NCE in peripheral blood; type: in vivo, Swiss H mice; parameters: unit not given here
[5] = test system: pulmonary miRNAs; assay: Pulmonary miRNA expression (microarray), Study 1
Protocol: Ten mice per group (5 males and 5 females) were used. […] Twenty mice per group (10 males and 10 females) were used. […] Each group was composed of 10 female mice.
RNA was extracted from mouse organs (miRNeasy, Qiagen, Hilden, Germany) and body fluids (Exiqon's miRCURY™ RNA Isolation Kit – Biofluids (Exiqon, Vedbaek, Denmark) according to the manufacturers’ instructions. The quality of the RNA extracted was evaluated by spectrophotometric analyses using a fiber optic spectrophotometer (Nanodrop ND-1000).
For evaluating the expression of pulmonary miRNAs we used the 7th generation miRCURY LNA™ microRNA Array (Exiqon), which contains 3,100 capture probes covering human, mouse and rat miRNAs. In particular, this array covers 1,135 mouse miRNAs, i.e. the 88.6% of the 1,281 mouse miRNAs listed in miRBase 19. Microarray analyses were carried out as previously described [22].
Treatment-related differences in body weights, in the frequency of MN NCE, and in the levels of pulmonary DNA adducts and 8-oxo-dGuo, all of them expressed as means ± SE within each group of mice, were evaluated for statistical significance by ANOVA followed by Student's t test for unpaired data. miRNA microarray data, after local background subtraction, log transformation, and normalization were analyzed by GeneSpring software (Agilent, Santa Clara, CA), and expression data were median centered by using the GeneSpring normalization option. The statistical significance of the differences between experimental groups was evaluated by means of the GeneSpring ANOVA applied by using Bonferroni multiple testing correction. […] The overall variability of microarray data, as related to treatments, was evaluated by scatter-plot analysis (SPA), hierarchical cluster analysis (HCA), and principal component analysis (PCA).

[6] = test system: urine miRNAs; assay: miRNA expression (microarray), Study 3, urine; type: in vivo, ICR (CD-1) mice
Protocol: as §1, §2, §3, §4

[7] = test system: colon miRNAs; assay: miRNA expression (microarray), Study 3, colon; type: in vivo, ICR (CD-1) mice
Protocol: as §1, §2, §3, §4

[8] = test system: brain miRNAs; assay: miRNA expression (microarray), Study 3, brain; type: in vivo, ICR (CD-1) mice; settings: high dose
Protocol: as §1
as §2, with “damage. […]” for “damage.”
as §4

[9] = test system: lung DNA; assay: Bulky DNA adducts in lung by 32P postlabeling, Study 1; type: in vivo, Swiss H mice
Protocol: as §1
(§5) DNA was extracted from tissue specimens (50 mg) collected individually from the lungs of 40 Swiss H mice used in Study 1 and from lungs, heart and liver of 80 ICR (CD-1) mice used in Study 2, as previously described. Bulky DNA adducts, after butanol enrichment, and 8-hydroxy-2’-deoxyguanosine (8-oxo-dGuo) were measured by ^32P postlabeling as previously described.

[10] = test system: BALF miRNAs; assay: miRNA expression (microarray), Study 3, BALF; type: in vivo, ICR (CD-1) mice
Protocol: as §1, §2, §3, §4

[11] = mice, 1,000 mg/kg diet; cited from earlier work
[12] = test system: liver DNA; assay: Bulky DNA adducts by 32P postlabeling, Study 2, liver; type: in vivo, ICR (CD-1) mice; settings: for Bulky DNA adducts: Liver; for increase of DNA adduct levels over sham-exposed mice: liver
Protocol: as §1, §5

[13] = celecoxib in MCS-exposed mice vs MCS
[14] = urine, low dose (20 mg/kg diet) vs sham

Cc1ccc(-c2cc(C(F)(F)F)nn2-c2ccc(S(N)(=O)=O)cc2)cc1 [Celecoxib, 4-[5-(4-methylphenyl)-3-(trifluoromethyl)-1H-pyrazol-1-yl] benzene-1-sulfonamide]
upregulated/downregulated miRNAs ([1]; MCS-exposed mice): 0/0 | miR-30c-2-3p downregulation ([1]; MCS-free mice): 14 fold | miR-30c-2-5p downregulation ([1]; MCS-free mice): 13 fold | miR-30e downregulation ([1]; MCS-free mice): 8 fold | miR-185-5p downregulation ([1]; MCS-free mice): 25 fold | miR-301 downregulation ([1]; MCS-free mice): 7 fold | miR-802-3p downregulation ([1]; MCS-free mice): 6 fold | miR-1964-5p downregulation ([1]; MCS-free mice): 7 fold | upregulated/downregulated miRNAs ([1]; MCS-free mice): 7/20 | number of miRNAs modulated by celecoxib ([1]; high dose): 27 | miR-30c-2-3p downregulation ([2]; MCS-exposed mice): 7 fold | miR-30e upregulation ([2]; MCS-exposed mice): 6 fold | miR-185-5p downregulation ([2]; MCS-exposed mice): 14 fold | miR-701-3p upregulation ([2]; MCS-exposed mice): 5 fold | miR-802-3p upregulation ([2]; MCS-exposed mice): 5 fold | miR-1964-5p downregulation ([2]; MCS-exposed mice): 5 fold | upregulated/downregulated miRNAs ([2]; MCS-exposed mice): 8/12 | miR-30c-2-5p downregulation ([2]; MCS-free mice): 10 fold | miR-30e downregulation ([2]; MCS-free mice): 8 fold | miR-185-5p downregulation ([2]; MCS-free mice): 20 fold | miR-301 downregulation ([2]; MCS-free mice): 8 fold | upregulated/downregulated miRNAs ([2]; MCS-free mice): 0/10 | number of miRNAs modulated by celecoxib ([2]; high dose): 30 | upregulated/downregulated miRNAs ([3]; blood serum, MCS-exposed mice): 2/3 | miR-1964-5p downregulation ([3]; blood serum, MCS-free mice): 8 fold | upregulated/downregulated miRNAs ([3]; blood serum, MCS-free mice): 2/11 | number of miRNAs modulated by celecoxib ([3]; blood serum, high dose): 18 | number of miRNAs modulated ([3]; blood serum, low dose): 2 | miR30c-5p downregulation ([3]; blood serum, low dose (20 mg/kg diet) vs sham): 2.9 fold | miR-185 downregulation ([3]; blood serum, low dose (20 mg/kg diet), compared to MCS-exposed mice): 2.1 fold | number of miRNAs modulated ([3]; blood, high dose): 11 | frequency of MN NCE ([4]; females, 4 months of age): 0.8 ± 0.08 | frequency of MN NCE ([4]; females, MCS-exposed mice given celecoxib): 1.2 ± 0.08 | frequency of MN NCE ([4]; males, 4 months of age): 1.4 ± 0.12 | frequency of MN NCE ([4]; males, MCS-exposed mice given celecoxib): 2.2 ± 0.15 | number of pulmonary miRNAs significantly dysregulated [5, 13]: 11 | share of pulmonary miRNAs significantly dysregulated [5, 13]: 1.0% | number of pulmonary miRNAs downregulated ([5]; vs sham-exposed mice): 2 | number of pulmonary miRNAs upregulated ([5]; vs sham-exposed mice): 19 | number of miRNAs modulated ([6]; urine, high dose): 3 | number of miRNAs modulated ([6]; urine, low dose): 2 | miR-290 downregulation [6, 14]: 2.4 fold | miR-1945b downregulation [6, 14]: 2.4 fold | upregulated/downregulated miRNAs ([6]; urines, MCS-free mice): 0/3 | number of miRNAs modulated by celecoxib ([6]; urines, high dose): 3 | upregulated/downregulated miRNAs ([7]; MCS-exposed mice): 0/2 | miR-185-5p downregulation ([7]; MCS-free mice): 8 fold | miR-301 downregulation ([7]; MCS-free mice): 6 fold | upregulated/downregulated miRNAs ([7]; MCS-free mice): 1/4 | number of miRNAs modulated by celecoxib ([7]; high dose): 7 | number of miRNAs modulated by celecoxib [8]: 0 | increase of pulmonary DNA adducts vs sham-exposed mice ([9]; MCS-exposed mice given celecoxib): 8.5 fold | increase of pulmonary DNA adducts vs sham-exposed mice ([9]; combined genders): 3.3 fold | Bulky DNA adducts ([9]; lung, F): 4.3 ± 0.34^b adducts/10^8 nucleotides | Bulky DNA adducts ([9]; lung, M): 4.3 ± 0.40^b adducts/10^8 nucleotides | Bulky DNA adducts ([9]; lung, M + F): 4.3 ± 0.25^b adducts/10^8 nucleotides | autoradiographic spots absent in sham-exposed mice ([9]; lung, MCS-free mice): 3 | miR-1964-5p downregulation ([10]; MCS-exposed mice): 3 fold | upregulated/downregulated miRNAs ([10]; MCS-exposed mice): 0/2 | miR-1964-5p downregulation ([10]; MCS-free mice): 6 fold | upregulated/downregulated miRNAs ([10]; MCS-free mice): 2/3 | number of miRNAs modulated by celecoxib ([10]; high dose): 7 | plasma concentration [11]: 1.6 µg/mL | Bulky DNA adducts ([12]; F): 1.8 ± 0.08^c adducts/10^8 nucleotides | Bulky DNA adducts ([12]; M): 1.6 ± 0.12^a adducts/10^8 nucleotides | Bulky DNA adducts ([12]; M + F): 1.7 ± 0.08^a adducts/10^8 nucleotides | increase of DNA adduct levels over sham-exposed mice ([12]; MCS-exposed mice treated with celecoxib, females): 1.5 fold | increase of DNA adduct levels over sham-exposed mice ([12]; MCS-exposed mice treated with celecoxib, males): 1.3 fold | increase of DNA adduct levels over sham-exposed mice ([12]; MCS-exposed mice treated with celecoxib, mixed genders): 1.4 fold | increase of DNA adduct levels over sham-exposed mice ([12]; combined genders): 1.4 fold | increase of DNA adduct levels over sham-exposed mice ([12]; females): 1.5 fold | increase of DNA adduct levels over sham-exposed mice ([12]; males): 1.3 fold
